This passage reports IC50 and Activity results from ChEMBL document CHEMBL4680217, “Discovery of PROTAC BCL-X degraders as potent anticancer agents with low on-target platelet toxicity” (Eur J Med Chem, 2020).

By IC50 is commonly meant the concentration at which inhibition is half-maximal.

The source made the active and inactive calls. The calls are words filed in the database; no cut-off is given here.

The test system of one test is MOLT-4. As to the kind of experiment: Antiproliferative activity against human MOLT-4 cells assessed as reduction in cell viability measured after 48 hrs by MTS assay. Format: functional, cell-based. The following applies: MOLT-4, 48 h. For orientation: Formazan colour is commonly taken as a measure of viable cells.
The target in test [1] is von Hippel-Lindau disease tumor suppressor/Bcl-2-like protein 1 (Homo sapiens, UniProt Q07817+P40337). In words: Protac activity at VHL/BCL-XL in human MOLT-4 cells assessed as induction of BCL-XL degradation by measuring remaining BCL-XL level at 100 nM measured after 16 hrs by immunoblotting analysis relative to control. Type of test: cell-based. Background: In western blotting, separated proteins are transferred to a membrane and probed.
von Hippel-Lindau disease tumor suppressor/Bcl-2-like protein 1, sequence (P40337 whole entry, looked up): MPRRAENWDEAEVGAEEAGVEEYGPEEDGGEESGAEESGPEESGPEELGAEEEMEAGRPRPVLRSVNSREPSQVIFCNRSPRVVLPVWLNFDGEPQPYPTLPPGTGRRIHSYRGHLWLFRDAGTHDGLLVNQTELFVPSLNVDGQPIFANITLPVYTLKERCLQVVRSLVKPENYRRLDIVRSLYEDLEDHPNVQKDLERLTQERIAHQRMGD
von Hippel-Lindau disease tumor suppressor/Bcl-2-like protein 1, sequence (Q07817 whole entry, looked up): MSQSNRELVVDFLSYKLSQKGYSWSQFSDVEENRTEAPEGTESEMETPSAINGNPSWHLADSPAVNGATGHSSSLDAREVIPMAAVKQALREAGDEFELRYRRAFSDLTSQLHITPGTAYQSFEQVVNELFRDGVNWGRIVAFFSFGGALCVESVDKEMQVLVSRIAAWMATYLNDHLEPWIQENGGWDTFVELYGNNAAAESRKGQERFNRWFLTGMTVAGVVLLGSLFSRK

The target in test [2] is von Hippel-Lindau disease tumor suppressor/Apoptosis regulator Bcl-2 (Homo sapiens) (UniProt P10415+P40337). In words: Protac activity at VHL/BCL2 in human MOLT-4 cells assessed as induction of BCL2 degradation at 100 nM measured after 16 hrs by immunoblotting analysis. Format: cell-based.
von Hippel-Lindau disease tumor suppressor/Apoptosis regulator Bcl-2 (Homo sapiens), sequence (P10415 whole entry, looked up): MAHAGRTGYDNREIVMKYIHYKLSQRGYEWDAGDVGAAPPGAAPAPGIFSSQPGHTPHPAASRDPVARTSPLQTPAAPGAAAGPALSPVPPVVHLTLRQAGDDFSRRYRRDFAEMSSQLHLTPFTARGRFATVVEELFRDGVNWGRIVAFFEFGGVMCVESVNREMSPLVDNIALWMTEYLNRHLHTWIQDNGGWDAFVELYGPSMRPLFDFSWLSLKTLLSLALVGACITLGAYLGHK
von Hippel-Lindau disease tumor suppressor/Apoptosis regulator Bcl-2 (Homo sapiens), sequence (P40337 whole entry, looked up): as the sequence (P40337 whole entry, looked up) above
The target in test [3] is Protein cereblon/Apoptosis regulator Bcl-2 (Homo sapiens) (UniProt P10415+Q96SW2). As to the kind of experiment: Protac activity at CRBN/BCL2 in human MOLT-4 cells assessed as induction of BCL2 degradation at 50 nM measured after 16 hrs by immunoblotting analysis. Format: cell-based.
Protein cereblon/Apoptosis regulator Bcl-2 (Homo sapiens), sequence (P10415 whole entry, looked up): as the sequence (P10415 whole entry, looked up) above
Protein cereblon/Apoptosis regulator Bcl-2 (Homo sapiens), sequence (Q96SW2 whole entry, looked up): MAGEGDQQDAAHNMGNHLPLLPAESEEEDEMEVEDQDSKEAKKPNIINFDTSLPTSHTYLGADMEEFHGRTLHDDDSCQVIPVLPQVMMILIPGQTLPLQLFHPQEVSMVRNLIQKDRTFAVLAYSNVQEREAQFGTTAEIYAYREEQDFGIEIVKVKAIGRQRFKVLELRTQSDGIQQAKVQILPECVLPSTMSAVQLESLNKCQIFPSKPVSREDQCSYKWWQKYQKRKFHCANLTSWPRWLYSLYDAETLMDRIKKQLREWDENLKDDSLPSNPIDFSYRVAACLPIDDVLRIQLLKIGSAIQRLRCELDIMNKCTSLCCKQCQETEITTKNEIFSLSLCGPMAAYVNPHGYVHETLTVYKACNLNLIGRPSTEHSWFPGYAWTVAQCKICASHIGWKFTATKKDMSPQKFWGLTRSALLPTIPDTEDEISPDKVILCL
Test [4] has as its target Protein cereblon/Bcl-2-like protein 1 (Homo sapiens, UniProt Q07817+Q96SW2). In words: Protac activity at CRBN/BCL-XL in human MOLT-4 cells assessed as induction of BCL-XL degradation by measuring remaining BCL-XL level at 50 nM measured after 16 hrs by immunoblotting analysis relative to control. Format: cell-based.

Protein cereblon/Bcl-2-like protein 1, sequence (Q07817 whole entry, looked up): as the sequence (Q07817 whole entry, looked up) above
Protein cereblon/Bcl-2-like protein 1, sequence (Q96SW2 whole entry, looked up): as the sequence (Q96SW2 whole entry, looked up) above

Consider `Cc1ncsc1-c1ccc([C@H](C)NC(=O)[C@@H]2C[C@@H](O)CN2C(=O)[C@@H](NC(=O)COCCOCCOCCOCCN(C)CC[C@H](CSc2ccccc2)Nc2ccc(S(=O)(=O)NC(=O)c3ccc(N4CCN(CC5=C(c6ccc(Cl)cc6)CCC(C)(C)C5)CC4)cc3)cc2S(=O)(=O)C(F)(F)F)C(C)(C)C)cc1`, for which the concentration for half-maximal inhibition (IC50) in the test on MOLT-4 came to 206 nM. The Activity in test [1] was 33%. For the same molecule, the result in test [2] was inactive.
Take `Cc1ncsc1-c1ccc([C@H](C)NC(=O)[C@@H]2C[C@@H](O)CN2C(=O)[C@@H](NC(=O)CCCCN2CCN(CC[C@H](CSc3ccccc3)Nc3ccc(S(=O)(=O)NC(=O)c4ccc(N5CCN(CC6=C(c7ccc(Cl)cc7)CCC(C)(C)C6)CC5)cc4)cc3S(=O)(=O)C(F)(F)F)CC2)C(C)(C)C)cc1`: the 50% inhibitory concentration (IC50) in the test with MOLT-4 was 130 nM. Further, in test [1], the Activity is 61%. Further, the outcome in test [2] was inactive.
For `Cc1ncsc1-c1ccc([C@H](C)NC(=O)[C@@H]2C[C@@H](O)CN2C(=O)[C@@H](NC(=O)CCCCCCN2CCN(CC[C@H](CSc3ccccc3)Nc3ccc(S(=O)(=O)NC(=O)c4ccc(N5CCN(CC6=C(c7ccc(Cl)cc7)CCC(C)(C)C6)CC5)cc4)cc3S(=O)(=O)C(F)(F)F)CC2)C(C)(C)C)cc1`, the 50% inhibitory concentration (IC50) with MOLT-4 came to 94.5 nM. The Activity in test [1] is 62%. Moreover, in test [2], the result was inactive.
Taken in the same sequence, the figures for `Cc1ncsc1-c1ccc([C@H](C)NC(=O)[C@@H]2C[C@@H](O)CN2C(=O)[C@@H](NC(=O)CCOCCC(=O)N2CCN(CC[C@H](CSc3ccccc3)Nc3ccc(S(=O)(=O)NC(=O)c4ccc(N5CCN(CC6=C(c7ccc(Cl)cc7)CCC(C)(C)C6)CC5)cc4)cc3S(=O)(=O)C(F)(F)F)CC2)C(C)(C)C)cc1` were 324 nM, 62% and “inactive”.
Take `Cc1ncsc1-c1ccc([C@H](C)NC(=O)[C@@H]2C[C@@H](O)CN2C(=O)[C@@H](NC(=O)CCCCN(C)CC[C@H](CSc2ccccc2)Nc2ccc(S(=O)(=O)NC(=O)c3ccc(N4CCN(CC5=C(c6ccc(Cl)cc6)CCC(C)(C)C5)CC4)cc3)cc2S(=O)(=O)C(F)(F)F)C(C)(C)C)cc1`: the half-inhibitory concentration (IC50) in the test with MOLT-4 was 1240 nM. Besides, in test [1], the Activity was 75%. Besides, the result in test [2] was inactive.
Take `Cc1ncsc1-c1ccc([C@H](C)NC(=O)[C@@H]2C[C@@H](O)CN2C(=O)[C@@H](NC(=O)CCCCCCCCN(C)CC[C@H](CSc2ccccc2)Nc2ccc(S(=O)(=O)NC(=O)c3ccc(N4CCN(CC5=C(c6ccc(Cl)cc6)CCC(C)(C)C5)CC4)cc3)cc2S(=O)(=O)C(F)(F)F)C(C)(C)C)cc1`: the IC50 with MOLT-4 was determined as 139 nM. Besides, the Activity in test [1] was determined as 49%. For the same molecule, the result in test [2] was inactive.
In the case of `Cc1ncsc1-c1ccc([C@H](C)NC(=O)[C@@H]2C[C@@H](O)CN2C(=O)[C@@H](NC(=O)CCCCCCC(=O)N2CCN(CC[C@H](CSc3ccccc3)Nc3ccc(S(=O)(=O)NC(=O)c4ccc(N5CCN(CC6=C(c7ccc(Cl)cc7)CCC(C)(C)C6)CC5)cc4)cc3S(=O)(=O)C(F)(F)F)CC2)C(C)(C)C)cc1`, the 50% inhibitory concentration (IC50) with MOLT-4 was determined as 108 nM. Moreover, the Activity in test [1] was 32%. In test [2], the result was inactive.
For `Cc1ncsc1-c1ccc([C@H](C)NC(=O)[C@@H]2C[C@@H](O)CN2C(=O)[C@@H](NC(=O)CCCCCCCCCN(C)CC[C@H](CSc2ccccc2)Nc2ccc(S(=O)(=O)NC(=O)c3ccc(N4CCN(CC5=C(c6ccc(Cl)cc6)CCC(C)(C)C5)CC4)cc3)cc2S(=O)(=O)C(F)(F)F)C(C)(C)C)cc1`, in that order: 1060 nM, 62% and “inactive”.
Take `Cc1ncsc1-c1ccc([C@H](C)NC(=O)[C@@H]2C[C@@H](O)CN2C(=O)[C@@H](NC(=O)CCCCCC(=O)N(C)CC[C@H](CSc2ccccc2)Nc2ccc(S(=O)(=O)NC(=O)c3ccc(N4CCN(CC5=C(c6ccc(Cl)cc6)CCC(C)(C)C5)CC4)cc3)cc2S(=O)(=O)C(F)(F)F)C(C)(C)C)cc1`: in the test on MOLT-4, the IC50 was more than 2000 nM. For the same molecule, the Activity in test [1] turned out to be 78%. For the same molecule, the result in test [2] was inactive.
Taken in the same sequence, the figures for `Cc1ncsc1-c1ccc([C@H](C)NC(=O)[C@@H]2C[C@@H](O)CN2C(=O)[C@@H](NC(=O)CCOCCN2CCN(CC[C@H](CSc3ccccc3)Nc3ccc(S(=O)(=O)NC(=O)c4ccc(N5CCN(CC6=C(c7ccc(Cl)cc7)CCC(C)(C)C6)CC5)cc4)cc3S(=O)(=O)C(F)(F)F)CC2)C(C)(C)C)cc1` were 151 nM, 72% and “inactive”.
For `CC1(C)CCC(c2ccc(Cl)cc2)=C(CN2CCN(c3ccc(C(=O)NS(=O)(=O)c4ccc(N[C@H](CCN5CCN(C(=O)CCCCCNc6cccc7c6C(=O)N([C@@H]6CCC(=O)NC6=O)C7=O)CC5)CSc5ccccc5)c(S(=O)(=O)C(F)(F)F)c4)cc3)CC2)C1`, the outcome in test [3] was inactive. The half-maximal inhibitory concentration (IC50) in the test with MOLT-4 was found to be 518 nM. For the same molecule, the Activity in test [4] was determined as 63%.
For `CN(CC[C@H](CSc1ccccc1)Nc1ccc(S(=O)(=O)NC(=O)c2ccc(N3CCN(CC4=C(c5ccc(Cl)cc5)CCC(C)(C)C4)CC3)cc2)cc1S(=O)(=O)C(F)(F)F)C(=O)CCCn1cc(COCCOCCOCCNc2cccc3c2C(=O)N([C@@H]2CCC(=O)NC2=O)C3=O)nn1`, the result in test [3] was inactive. Besides, the IC50 in the test on MOLT-4 came out at 769 nM. Moreover, the Activity in test [4] was 67%.
On to `CC1(C)CCC(c2ccc(Cl)cc2)=C(CN2CCN(c3ccc(C(=O)NS(=O)(=O)c4ccc(N[C@H](CCN5CCN(C(=O)CCCCNc6cccc7c6C(=O)N([C@@H]6CCC(=O)NC6=O)C7=O)CC5)CSc5ccccc5)c(S(=O)(=O)C(F)(F)F)c4)cc3)CC2)C1`, for which the result in test [3] was inactive. In addition, in the test with MOLT-4, the IC50 was 346 nM. The Activity in test [4] was determined as 81%.
Take `CN(CCCCCNc1cccc2c1C(=O)N([C@@H]1CCC(=O)NC1=O)C2=O)CC[C@H](CSc1ccccc1)Nc1ccc(S(=O)(=O)NC(=O)c2ccc(N3CCN(CC4=C(c5ccc(Cl)cc5)CCC(C)(C)C4)CC3)cc2)cc1S(=O)(=O)C(F)(F)F`: the outcome in test [3] was inactive. Further, in the test with MOLT-4, the IC50 was 60.9 nM. Besides, the Activity in test [4] was found to be 47%.
For `CC1(C)CCC(c2ccc(Cl)cc2)=C(CN2CCN(c3ccc(C(=O)NS(=O)(=O)c4ccc(N[C@H](CCN5CCN(C(=O)CCCCCCNc6cccc7c6C(=O)N([C@@H]6CCC(=O)NC6=O)C7=O)CC5)CSc5ccccc5)c(S(=O)(=O)C(F)(F)F)c4)cc3)CC2)C1`, in that order: “inactive”, more than 2000 nM and 101%.
Consider `CC1(C)CCC(c2ccc(Cl)cc2)=C(CN2CCN(c3ccc(C(=O)NS(=O)(=O)c4ccc(N[C@H](CCN5CCN(CCOCCNc6cccc7c6C(=O)N([C@@H]6CCC(=O)NC6=O)C7=O)CC5)CSc5ccccc5)c(S(=O)(=O)C(F)(F)F)c4)cc3)CC2)C1`, for which the result in test [3] was inactive. Also, the IC50 with MOLT-4 amounted to 60.5 nM. Also, the Activity in test [4] stood at 20%.
For `CC1(C)CCC(c2ccc(Cl)cc2)=C(CN2CCN(c3ccc(C(=O)NS(=O)(=O)c4ccc(N[C@H](CCN5CCN(C(=O)CCCCCCCNc6cccc7c6C(=O)N([C@@H]6CCC(=O)NC6=O)C7=O)CC5)CSc5ccccc5)c(S(=O)(=O)C(F)(F)F)c4)cc3)CC2)C1`, in that order: “inactive”, more than 2000 nM and 89%.
